According to the supplement of paper PMC10307832:

Key:
Experiment in all cases: relative viability (nuclei count vs DMSO), 5 days (fraction); higher = more cells survive
NCI-H1792 = test system: NCI-H1792
How it was run: (§1)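 Nuclei were stained with Hoechst during a one-step fixation (final 0.05% Triton X-100, 1% formaldehyde, 1 ug/ml Hoechst) carried out 5 days after dosing, then counted on 4× images. The cells, lung cancer lines in 1536-well plates, had been dosed by pin tool the day after seeding with one drug alone or a fixed anchor-drug dose plus five library-drug doses (not always all listed) in √10 steps. Relative viability is the nuclei count in treated wells divided by that in vehicle wells, and each value is the median of duplicate plates.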

COR-L 105 = test system: COR-L 105
How it was run: as §1

NCI-H1975 = test system: NCI-H1975
How it was run: as §1

NCI-H358 = test system: NCI-H358
How it was run: as §1

NCI-H838 = test system: NCI-H838
How it was run: as §1

BEN = test system: BEN
How it was run: as §1

NCI-H1666 = test system: NCI-H1666
How it was run: as §1

NCI-H23 = test system: NCI-H23
How it was run: as §1

EKVX = test system: EKVX
How it was run: as §1

HCC-15 = test system: HCC-15
How it was run: as §1

NCI-H1437 = test system: NCI-H1437
How it was run: as §1

HARA = test system: HARA
How it was run: as §1

LK-2 = test system: LK-2
How it was run: as §1

COR-L23 = test system: COR-L23
How it was run: as §1

NCI-H441 = test system: NCI-H441
How it was run: as §1

NCI-H650 = test system: NCI-H650
How it was run: as §1

SW 900 = test system: SW 900
How it was run: as §1

A-427 = test system: A-427
How it was run: as §1

HCC-827 = test system: HCC-827
How it was run: as §1

201T = test system: 201T
How it was run: as §1

SK-MES-1 = test system: SK-MES-1
How it was run: as §1

NCI-H596 = test system: NCI-H596
How it was run: as §1

## O=C(O)c1ccc(-c2c[nH]c3ncc(-c4ccccc4)cc23)cc1C1CCCC1 + Cc1nc(Nc2ncc(C(=O)Nc3c(C)cccc3Cl)s2)cc(N2CCN(CCO)CC2)n1 [Dasatinib] (partner 0.075 µM)
NCI-H1792; first compound 0.1265 µM
  relative viability: 0.8
NCI-H1792; first compound 0.4 µM
  relative viability: 0.856
NCI-H1792; first compound 1.265 µM
  relative viability: 0.847
COR-L 105; first compound 0.04 µM
  relative viability: 0.318
COR-L 105; first compound 0.1265 µM
  relative viability: 0.376
COR-L 105; first compound 0.4 µM
  relative viability: 0.383
COR-L 105; first compound 1.265 µM
  relative viability: 0.391
NCI-H1975; first compound 0.04 µM
  relative viability: 0.446
NCI-H1975; first compound 0.1265 µM
  relative viability: 0.356
NCI-H1975; first compound 0.4 µM
  relative viability: 0.408
NCI-H1975; first compound 1.265 µM
  relative viability: 0.376
NCI-H358; first compound 0.04 µM
  relative viability: 0.143
NCI-H358; first compound 0.1265 µM
  relative viability: 0.209
NCI-H358; first compound 0.4 µM
  relative viability: 0.209
NCI-H358; first compound 1.265 µM
  relative viability: 0.152
NCI-H838; first compound 0.04 µM
  relative viability: 0.273
NCI-H838; first compound 0.1265 µM
  relative viability: 0.299
NCI-H838; first compound 0.4 µM
  relative viability: 0.31
NCI-H838; first compound 1.265 µM
  relative viability: 0.293
BEN; first compound 0.04 µM
  relative viability: 0.291
BEN; first compound 0.1265 µM
  relative viability: 0.374
BEN; first compound 0.4 µM
  relative viability: 0.358
BEN; first compound 1.265 µM
  relative viability: 0.291
NCI-H1666; first compound 0.04 µM
  relative viability: 0.858
NCI-H1666; first compound 0.1265 µM
  relative viability: 0.928
NCI-H1666; first compound 0.4 µM
  relative viability: 0.832
NCI-H1666; first compound 1.265 µM
  relative viability: 0.501
NCI-H23; first compound 0.04 µM
  relative viability: 0.82
NCI-H23; first compound 0.1265 µM
  relative viability: 1.04
NCI-H23; first compound 0.4 µM
  relative viability: 0.729
NCI-H23; first compound 1.265 µM
  relative viability: 0.717
EKVX; first compound 0.04 µM
  relative viability: 0.547
EKVX; first compound 0.1265 µM
  relative viability: 0.512
EKVX; first compound 0.4 µM
  relative viability: 0.564
EKVX; first compound 1.265 µM
  relative viability: 0.675
HCC-15; first compound 0.04 µM
  relative viability: 0.648
HCC-15; first compound 0.1265 µM
  relative viability: 0.698
HCC-15; first compound 0.4 µM
  relative viability: 0.591
HCC-15; first compound 1.265 µM
  relative viability: 0.38
NCI-H1437; first compound 0.04 µM
  relative viability: 0.385
NCI-H1437; first compound 0.1265 µM
  relative viability: 0.386
NCI-H1437; first compound 0.4 µM
  relative viability: 0.374
NCI-H1437; first compound 1.265 µM
  relative viability: 0.378
HARA; first compound 0.04 µM
  relative viability: 0.237
HARA; first compound 0.1265 µM
  relative viability: 0.294
HARA; first compound 0.4 µM
  relative viability: 0.308
HARA; first compound 1.265 µM
  relative viability: 0.3
LK-2; first compound 0.04 µM
  relative viability: 0.362
LK-2; first compound 0.1265 µM
  relative viability: 0.282
LK-2; first compound 0.4 µM
  relative viability: 0.252
LK-2; first compound 1.265 µM
  relative viability: 0.274
COR-L23; first compound 0.04 µM
  relative viability: 0.485
COR-L23; first compound 0.1265 µM
  relative viability: 0.578
COR-L23; first compound 0.4 µM
  relative viability: 0.469
COR-L23; first compound 1.265 µM
  relative viability: 0.3
NCI-H441; first compound 0.04 µM
  relative viability: 0.737
NCI-H441; first compound 0.1265 µM
  relative viability: 0.521
NCI-H441; first compound 0.4 µM
  relative viability: 0.575
NCI-H441; first compound 1.265 µM
  relative viability: 0.473
NCI-H650; first compound 0.04 µM
  relative viability: 0.43
NCI-H650; first compound 0.1265 µM
  relative viability: 0.502
NCI-H650; first compound 0.4 µM
  relative viability: 0.405
NCI-H650; first compound 1.265 µM
  relative viability: 0.353
SW 900; first compound 0.04 µM
  relative viability: 0.577
SW 900; first compound 0.1265 µM
  relative viability: 0.712
SW 900; first compound 0.4 µM
  relative viability: 0.584
SW 900; first compound 1.265 µM
  relative viability: 0.52
A-427; first compound 0.04 µM
  relative viability: 0.672
A-427; first compound 0.1265 µM
  relative viability: 0.749
A-427; first compound 0.4 µM
  relative viability: 0.64
A-427; first compound 1.265 µM
  relative viability: 0.595
HCC-827; first compound 0.04 µM
  relative viability: 0.339
HCC-827; first compound 0.1265 µM
  relative viability: 0.294
HCC-827; first compound 0.4 µM
  relative viability: 0.348
HCC-827; first compound 1.265 µM
  relative viability: 0.381
201T; first compound 0.04 µM
  relative viability: 0.58
201T; first compound 0.1265 µM
  relative viability: 0.599
201T; first compound 0.4 µM
  relative viability: 0.523
201T; first compound 1.265 µM
  relative viability: 0.534
SK-MES-1; first compound 0.04 µM
  relative viability: 0.406
SK-MES-1; first compound 0.1265 µM
  relative viability: 0.384
SK-MES-1; first compound 0.4 µM
  relative viability: 0.387
SK-MES-1; first compound 1.265 µM
  relative viability: 0.4
NCI-H596; first compound 0.04 µM
  relative viability: 0.596
NCI-H596; first compound 0.1265 µM
  relative viability: 0.572
NCI-H596; first compound 0.4 µM
  relative viability: 0.601
NCI-H596; first compound 1.265 µM
  relative viability: 0.639
